Active and inactive are the calls of the source. No cut-off for these calls is given here.
What was measured:
[1] = Mutagenicity in Salmonella typhimurium TA102 assessed as number of revertant colonies per plate at 1500 microg/ml by Ames test; type: toxicity; conditions: salmonella enterica subsp. enterica serovar typhimurium; dose 1500 µg/ml
Leishmania amazonensis [2] = assay: Antileishmanial activity against Leishmania amazonensis promastigotes assessed as late apoptotic parasites at 38.1 uM incubated for 48 hrs by Annexin V/7-AAD staining based flow cytometry analysis relative to control; type: functional
[3] = Cytotoxicity against BALB/c mouse Peritoneal macrophage assessed as inhibition of cell growth incubated for 48 hrs by MTT assay; type: toxicity, cell-based; conditions: peritoneal macrophages
[4] = Mutagenicity in Salmonella typhimurium TA100 assessed as number of revertant colonies per plate at 5000 microg/ml by Ames test; type: toxicity; conditions: salmonella enterica subsp. enterica serovar typhimurium; dose 5000 µg/ml
Leishmania amazonensis [5] = assay: Antileishmanial activity against Leishmania amazonensis promastigotes assessed as late apoptotic parasites at 38.1 uM incubated for 72 hrs by Annexin V/7-AAD staining based flow cytometry analysis relative to control; type: functional
[6] = Mutagenicity in Salmonella typhimurium TA102 assessed as number of revertant colonies per plate at 500 microg/ml in presence of S9 fraction by Ames test; type: toxicity, subcellular; conditions: salmonella enterica subsp. enterica serovar typhimurium, dose 500 µg/ml
[7] = Mutagenicity in Salmonella typhimurium TA102 assessed as number of revertant colonies per plate at 150 microg/ml in presence of S9 fraction by Ames test; type: toxicity, subcellular; conditions: salmonella enterica subsp. enterica serovar typhimurium, dose 150 µg/ml
[8] = Mutagenicity in Salmonella typhimurium TA102 assessed as number of revertant colonies per plate at 500 microg/ml by Ames test; type: toxicity; conditions: salmonella enterica subsp. enterica serovar typhimurium; dose 500 µg/ml
Leishmania amazonensis [9] = assay: Antileishmanial activity against Leishmania amazonensis promastigotes assessed as late apoptotic parasites at 38.1 uM incubated for 24 hrs by Annexin V/7-AAD staining based flow cytometry analysis relative to control; type: functional
[10] = Mutagenicity in Salmonella typhimurium TA100 assessed as number of revertant colonies per plate at 50 microg/ml by Ames test; type: toxicity; conditions: salmonella enterica subsp. enterica serovar typhimurium; dose 50 µg/ml
[11] = Mutagenicity in Salmonella typhimurium TA102 assessed as number of revertant colonies per plate at 5000 microg/ml by Ames test; type: toxicity; conditions: salmonella enterica subsp. enterica serovar typhimurium; dose 5000 µg/ml
Leishmania amazonensis [12] = assay: Antileishmanial activity against Leishmania amazonensis promastigotes assessed as necrotic parasites at 38.1 uM incubated for 48 hrs by Annexin V/7-AAD staining based flow cytometry analysis relative to control; type: functional
[13] = Mutagenicity in Salmonella typhimurium TA98 assessed as number of revertant colonies per plate at 150 microg/ml by Ames test; type: toxicity; conditions: salmonella enterica subsp. enterica serovar typhimurium; dose 150 µg/ml
[14] = Mutagenicity in Salmonella typhimurium TA102 assessed as number of revertant colonies per plate at 5000 microg/ml in presence of S9 fraction by Ames test; type: toxicity, subcellular; conditions: salmonella enterica subsp. enterica serovar typhimurium, dose 5000 µg/ml
Leishmania amazonensis [15] = assay: Antileishmanial activity against leishmania amazonensis infected in BALB/c mouse assessed as reduction in lesion size at 5 mg/kg, ILES measured at 6 to 9 week post infection; type: functional, organism-based; conditions: time 6-9 weeks
Leishmania amazonensis [16] = assay: Antileishmanial activity against Leishmania amazonensis promastigotes assessed as viable apoptotic parasites at 38.1 uM incubated for 24 hrs by Annexin V/7-AAD staining based flow cytometry analysis relative to control; type: functional
Leishmania amazonensis [17] = assay: Antileishmanial activity against Leishmania amazonensis promastigotes assessed as early apoptotic parasites at 38.1 uM incubated for 72 hrs by Annexin V/7-AAD staining based flow cytometry analysis relative to control; type: functional
[18] = Mutagenicity in Salmonella typhimurium TA98 assessed as number of revertant colonies per plate at 5000 microg/ml by Ames test; type: toxicity; conditions: salmonella enterica subsp. enterica serovar typhimurium; dose 5000 µg/ml
[19] = Selectivity ratio of CC50 for cytotoxicity against BALB/c mouse Peritoneal macrophage assessed as inhibition of cell growth to IC50 for antileishmanial activity against leishmania amazonensis IFLA/BR/1967/PH8 promastigotes infected in mouse Peritoneal macrophage; type: toxicity, cell-based; conditions: peritoneal macrophages, read-out: Ratio CC50/IC50
Leishmania amazonensis [20] = assay: Antileishmanial activity against Leishmania amazonensis promastigotes assessed as viable apoptotic parasites at 38.1 uM incubated for 48 hrs by Annexin V/7-AAD staining based flow cytometry analysis relative to control; type: functional
Leishmania amazonensis [21] = assay: Antileishmanial activity against leishmania amazonensis IFLA/BR/1967/PH8 intracellular amastigote infected in mouse Peritoneal macrophage incubated for 24 hrs; type: functional, organism-based; conditions: IFLA/BR/1967/PH8, Peritoneal macrophage
[22] = Mutagenicity in Salmonella typhimurium TA102 assessed as number of revertant colonies per plate at 1500 microg/ml in presence of S9 fraction by Ames test; type: toxicity, subcellular; conditions: salmonella enterica subsp. enterica serovar typhimurium, dose 1500 µg/ml
Leishmania amazonensis [23] = assay: Antileishmanial activity against leishmania amazonensis infected in BALB/c mouse assessed as reduction in […] at 5 mg/kg, ILES measured after 65 days post infection by limiting dilution assay; type: functional, organism-based; conditions: time 65.0 day
Leishmania amazonensis [24] = assay: Antileishmanial activity against Leishmania amazonensis promastigotes assessed as necrotic parasites at 38.1 uM incubated for 72 hrs by Annexin V/7-AAD staining based flow cytometry analysis relative to control; type: functional
Leishmania amazonensis [25] = assay: Potency index, ratio of Amphotericin B IC50 to test compound IC50 for antileishmanial activity against leishmania amazonensis IFLA/BR/1967/PH8 promastigotes infected in mouse Peritoneal macrophage incubated for 24 hrs; type: functional
Mitochondrial membrane = assay: Induction of mitochondrial membrane potential in Leishmania amazonensis promastigotes at 38.1 uM measured at 72 hrs by flow cytometry analysis; type: cell membranes
[26] = Mutagenicity in Salmonella typhimurium TA98 assessed as number of revertant colonies per plate at 50 microg/ml by Ames test; type: toxicity; conditions: salmonella enterica subsp. enterica serovar typhimurium; dose 50 µg/ml
[27] = Selectivity ratio of CC50 for cytotoxicity against BALB/c mouse Peritoneal macrophage assessed as inhibition of cell growth to IC50 for antileishmanial activity against leishmania amazonensis IFLA/BR/1967/PH8 intracellular amastigote infected in mouse Peritoneal macrophage; type: toxicity, cell-based; conditions: peritoneal macrophages, read-out: Ratio CC50/IC50
Leishmania amazonensis [28] = assay: Antileishmanial activity against leishmania amazonensis infected in BALB/c mouse assessed as reduction in parasite load in footpad tissue at 5 mg/kg, ILES measured after 65 days post infection by limiting dilution assay; type: functional, organism-based; conditions: time 65.0 day
[29] = Mutagenicity in Salmonella typhimurium TA102 assessed as number of revertant colonies per plate at 150 microg/ml by Ames test; type: toxicity; conditions: salmonella enterica subsp. enterica serovar typhimurium; dose 150 µg/ml
Leishmania amazonensis [30] = assay: Antileishmanial activity against Leishmania amazonensis promastigotes assessed as early apoptotic parasites at 38.1 uM incubated for 48 hrs by Annexin V/7-AAD staining based flow cytometry analysis relative to control; type: functional
[31] = Mutagenicity in Salmonella typhimurium TA100 assessed as number of revertant colonies per plate at 150 microg/ml by Ames test; type: toxicity; conditions: salmonella enterica subsp. enterica serovar typhimurium; dose 150 µg/ml
Leishmania amazonensis [32] = assay: Antileishmanial activity against Leishmania amazonensis promastigotes assessed as viable apoptotic parasites at 38.1 uM incubated for 72 hrs by Annexin V/7-AAD staining based flow cytometry analysis relative to control; type: functional
[33] = Mutagenicity in Salmonella typhimurium TA98 assessed as number of revertant colonies per plate at 500 microg/ml by Ames test; type: toxicity; conditions: salmonella enterica subsp. enterica serovar typhimurium; dose 500 µg/ml
[34] = Mutagenicity in Salmonella typhimurium TA102 assessed as number of revertant colonies per plate at 50 microg/ml in presence of S9 fraction by Ames test; type: toxicity, subcellular; conditions: salmonella enterica subsp. enterica serovar typhimurium, dose 50 µg/ml

COc1cc(-c2cc(-c3ccc4c(c3)OCO4)on2)c(Cl)c(OC)c1OC
Activity [1]: 182 revertants/plate
Activity (Leishmania amazonensis [2]): 0.6%
CC50 at 48 h [3]: 50.1 µM
Activity [4]: 114 revertants/plate
Activity (Leishmania amazonensis [5]): 1.9%
revertant count [6]: 109 revertants/plate
Activity [7]: 187 revertants/plate
revertant count [8]: 161 revertants/plate
Activity (Leishmania amazonensis [9]): 0.4%
revertant count [10]: 103 revertants/plate
revertant count [11]: 194 revertants/plate
Activity (Leishmania amazonensis [12]): 0.6%
revertant count [13]: 9.7 revertants/plate
revertant count [14]: 100 revertants/plate
Activity (Leishmania amazonensis [15]): Active
Activity (Leishmania amazonensis [16]): 95.5%
Activity (Leishmania amazonensis [17]): 2.4%
revertant count [18]: 21.3 revertants/plate
selectivity ratio [19]: 1.3
Activity (Leishmania amazonensis [20]): 95.2%
IC50 (Leishmania amazonensis [21]): 2.2 µM
Activity [22]: 100 revertants/plate
Activity (Leishmania amazonensis [23]): Active
Activity (Leishmania amazonensis [24]): 2.5%
Ratio IC50 (Leishmania amazonensis [25]): 3.6
Activity (Mitochondrial membrane): Active
Activity [26]: 19.7 revertants/plate
selectivity ratio [27]: 22.7
Activity (Leishmania amazonensis [28]): Active
Activity [29]: 142 revertants/plate
Activity (Leishmania amazonensis [30]): 3.6%
Activity [31]: 94.6 revertants/plate
Activity (Leishmania amazonensis [32]): 93.2%
revertant count [33]: 23.3 revertants/plate
Activity [34]: 204 revertants/plate
